Results taken from patent US20160137746A1, “METHODS FOR TREATING HIGH CARDIOVASCULAR RISK PATIENTS WITH HYPERCHOLESTEROLEMIA” (Sanofi Biotechnology, priority 2014, published 2016).
Several values for one entry are separate records, joined by “and”; a condition that tells them apart may be missing. Identical values can stand only once.

Legend:
[1] = system: high cardiovascular risk patients with hypercholesterolemia; assay: ODYSSEY COMBO I: antibodies to alirocumab; format: in vivo, human
From the text: In seven of these patients, the antibodies were transient and resolved despite continued alirocumab treatment.

[2] = system: high cardiovascular risk patients with hypercholesterolemia; details: in vivo
Method: Safety was assessed through adverse event (AE) reporting (including adjudicated cardiovascular events), laboratory analyses, and vital signs measurement. Since the LDL-C-lowering effects of PCSK9 inhibition on top of a statin are unknown, a number of AEs were defined as being of special interest and were monitored, including alanine aminotransferase abnormalities, allergic events, hemolytic anemia, pregnancy, overdose with study drug, neurologic events, ophthalmic events, and local injection site reactions. AEs were determined to be of special interest based on review of previous clinical trials, correspondence with regulatory authorities and the Data Monitoring Committee, the use of a monoclonal antibody in this study, and the route of drug administration.
AEs (including adjudicated cardiovascular events), laboratory parameters, and vital signs were reported descriptively, based on the safety population (all randomized patients who received at least 1 dose or partial dose of study treatment). The safety analysis focused on the treatment-emergent AE period defined as the time from the first double-blind dose to the last double-blind dose of the investigational product +70 days (10 weeks).
The safety population included all randomized patients who received at least one dose or part of a dose of the double-blind IMP.
Safety analyses were descriptive, performed on the safety population according to treatment actually received. For analysis of TEAE and PCSA, the safety analysis focused on the TEAE period defined as the time from the first dose of double-blind IMP up to 70 days after the last double-blind injection.

[3] = system: high cardiovascular risk patients with hypercholesterolemia; assay: ODYSSEY COMBO II: lipid efficacy of alirocumab vs ezetimibe, add-on to maximally tolerated statin; format: in vivo, human; details: for Calculated LDL-C percent change from baseline, LS mean (SE): ITT population, MMRM, alirocumab 75 Q2W/Up150 Q2W, ezetimibe 10
From the text: Each of the COMBO studies was randomized, double-blinded, and placebo-controlled.
The primary efficacy endpoint for each study was the difference between treatment arms in the percent change in LDL-C from baseline to Week 24.
Apo, apolipoprotein; HDL-C, high-density lipoprotein cholesterol; ITT, intent-to-treat; LDL-C, low-density lipoprotein cholesterol; Lp(a), lipoprotein (a); TG, triglycerides.
COMBO II was a Phase 3, randomized, double-blind, active-controlled, parallel-group, multinational 104-week study. The study enrolled high-risk patients with uncontrolled hypercholesterolemia on stable, maximally tolerated daily statin therapy. Unlike COMBO I, with a placebo arm, COMBO II incorporated an active-treatment arm (ezetimibe) with double-dummy design (FIG. 1B) and patients were not allowed to receive any other lipid lowering therapies besides statin and their randomized treatment.
After randomization, patients entered a double-blind, double-dummy treatment period of 104 weeks.
Primary analyses of efficacy endpoints were conducted using an ITT approach (based on the ITT population defined above), including all lipid data, regardless of whether the patient was continuing therapy or not. This corresponds to ITT estimands, defined for primary and key secondary endpoints. In addition, analyses were also conducted using an on-treatment approach (based on the mITT population defined above), including lipid data collected during the efficacy treatment period. This corresponds to on-treatment estimands of key secondary endpoints.
With regards to the primary efficacy analysis (ITT approach), the percent change in calculated LDL-C from baseline to Week 24 was analyzed using a mixed-effect model with repeated measures (MMRM) approach.

[4] = ITT, Week 24, listed as alirocumab

Alirocumab: human anti-PCSK9 antibody; HCVR SEQ ID NO:1, LCVR SEQ ID NO:6; CDRs SEQ ID NOs 2/3/4/7/8/10
Effect of anti-alirocumab antibodies on safety and efficacy ([1]; in vivo): no observed effect on safety and efficacy
Median time to detection of antibodies to alirocumab ([1]; in vivo): 12 weeks
Antibodies to alirocumab detected at baseline ([1]; patients subsequently randomized to alirocumab (3/197)): 1.5%
Anti-alirocumab antibody titer ([1]; treatment-emergent positive patients): ≤ 240
SOC infections and infestations [2]: 37.2%
Urinary tract infection (TEAE preferred term) [2]: 13 (6.3) No. (%) of patients
Achieved LDL-C, median ([3]; 24 weeks, FIG. 7): 40 mg/dL
Patients with automatic up-titration at Week 12 from 75 mg Q2W to 150 mg Q2W (Week 8 LDL-C ≧70 mg/dL) ([3]; 82 of 446 patients with at least one injection after Week 12): 18.4% and 18%
Calculated LDL-C percent change, LS mean difference (SE) vs ezetimibe ([3]; ITT, Week 24): −29.8 (2.3) %
Calculated LDL-C, LS mean (SE) percent change from baseline ([3]; ITT, Week 24): −50.6 (1.4) %
Fasting TGs, LS mean percent change from baseline ([3]; ITT, Week 24): −13.0%
Calculated LDL-C percent change, LS mean difference (SE) vs ezetimibe [3, 4]: −29.8%
Calculated LDL-C, LS mean (SE) percent change from baseline [3, 4]: −50.6%
Fasting TGs percent change, LS mean difference vs ezetimibe ([3]; ITT, Week 24, p=0.9117): −0.3%
Calculated LDL-C, LS mean percent change from baseline ([3]; ITT, Week 52, listed as alirocumab): −49.5% and −50%
Apolipoprotein A-1, LS mean difference vs. ezetimibe ([3]; ITT, time point not given): vs. ezetimibe of 6.3%
Apolipoprotein A-1, LS mean vs. baseline ([3]; ITT, time point not given): vs. baseline of +5.0
Calculated LDL-C percent change, LS mean difference vs ezetimibe ([3]; On-treatment, Week 24): −30.6%
Calculated LDL-C percent change from baseline, LS mean (SE) ([3]; Week 4): −54.7 (1.1) %
Calculated LDL-C percent change from baseline, LS mean (SE) ([3]; Week 8): −54.3 (1.2) %
Apo-B - Percent change from baseline to Week 12, LS mean difference vs. ezetimibe ([3]; Week 12, ITT): vs. ezetimibe of −22.5%
Apo-B - Percent change from baseline to Week 12, LS mean vs. baseline ([3]; Week 12, ITT): vs. baseline of −39.7
Calculated LDL-C - Percent change from baseline to Week 12, LS mean difference vs. ezetimibe ([3]; Week 12, ITT): vs. ezetimibe of −29.4%
Non-HDL-C - Percent change from baseline to Week 12, LS mean difference vs. ezetimibe ([3]; Week 12, ITT): vs. ezetimibe of −22%
Non-HDL-C - Percent change from baseline to Week 12, LS mean vs. baseline ([3]; Week 12, ITT): vs. baseline of −42.6
Total-C - Percent change from baseline to Week 12, LS mean difference vs. ezetimibe ([3]; Week 12, ITT): vs. ezetimibe of −14.3%
Total-C - Percent change from baseline to Week 12, LS mean vs. baseline ([3]; Week 12, ITT): vs. baseline of −29.4
Calculated LDL-C - Percent change from baseline to Week 12, LS mean difference vs. ezetimibe ([3]; Week 12, On-treatment analysis): vs. ezetimibe of −29.7%
Calculated LDL-C percent change from baseline, LS mean (SE) ([3]; Week 16): −56.4 (1.3) %
Apo B reduction compared with ezetimibe ([3]; Week 24): 22.4%
Fasting TGs reduced from baseline ([3]; Week 24): 13.5%
HDL-C increase compared with ezetimibe ([3]; Week 24): 8.1%
Lp(a) reduction compared with ezetimibe ([3]; Week 24): 21.7%
Mean achieved LDL-C ([3]; Week 24): 51.6 (1.4) mg/dL
Non-HDL-C reduction compared with ezetimibe ([3]; Week 24): 22.9%
Apo-B - Percent change from baseline to Week 24, LS mean vs. baseline ([3]; Week 24, ITT): vs. baseline of −40.7
HDL-C - Percent change from baseline to Week 24, LS mean difference vs. ezetimibe ([3]; Week 24, ITT): vs. ezetimibe of 8.1%
HDL-C - Percent change from baseline to Week 24, LS mean vs. baseline ([3]; Week 24, ITT): vs. baseline of- +8.6
Lp(a) - Percent change from baseline to Week 24, combined estimate for adjusted mean difference vs. ezetimibe ([3]; Week 24, ITT): ezetimibe of −21.7%
Lp(a) - Percent change from baseline to Week 24, mean vs. baseline ([3]; Week 24, ITT): vs. baseline of −27.8
Non-HDL-C - Percent change from baseline to Week 24, LS mean difference vs. ezetimibe ([3]; Week 24, ITT): vs. ezetimibe of−22.9%
Non-HDL-C - Percent change from baseline to Week 24, LS mean vs. baseline ([3]; Week 24, ITT): vs. baseline of −42.1
Total-C - Percent change from baseline to Week 24, LS mean difference vs. ezetimibe ([3]; Week 24, ITT): vs. ezetimibe of −14.7%
Calculated LDL-C percent change from baseline, LS mean (SE) ([3]; Week 24): −50.6 (1.4) %
Fasting TGs - Percent change from baseline to Week 24, combined estimate for adjusted mean difference vs. ezetimibe ([3]; Week 24, ITT, not statistically significant (p 0.9117)): ezetimibe of −0.3%
HDL-C percent change from baseline to week 24 ([3]; Week 24, on-treatment analysis): 9.0 (0.8)
HDL-C percent change from baseline to week 24, LS mean difference (SE) alirocumab vs ezetimibe ([3]; Week 24, on-treatment analysis): 8.2 (1.4) %
Lipoprotein(a) percent change from baseline to week 24 ([3]; Week 24, on-treatment analysis): −28.1 (1.4)
Lipoprotein(a) percent change from baseline to week 24, LS mean difference (SE) alirocumab vs ezetimibe ([3]; Week 24, on-treatment analysis): −22.5 (2.4) %
Total cholesterol percent change from baseline to week 24 ([3]; Week 24, on-treatment analysis): −30.4 (0.9)
Total cholesterol percent change from baseline to week 24, LS mean difference (SE) alirocumab vs ezetimibe ([3]; Week 24, on-treatment analysis): −15.1 (1.5) %
Triglycerides (fasted) percent change from baseline to week 24 ([3]; Week 24, on-treatment analysis): −13.5 (1.4)
Triglycerides (fasted) percent change from baseline to week 24, LS mean difference (SE) alirocumab vs ezetimibe ([3]; Week 24, on-treatment analysis): −0.2 (2.5) %
Calculated LDL-C percent change from baseline, LS mean (SE) ([3]; Week 36): −51.2 (1.4) %
Calculated LDL-C - Percent change from baseline to Week 52, LS mean difference vs. ezetimibe ([3]; Week 52, ITT): vs. ezetimibe of −31.2%
Absolute reduction in LDL-C ([3]; by week 24, dose-increased group): 63.5 mg/dL
Absolute reduction in LDL-C ([3]; by week 24, remainder of the alirocumab group): 56.9 mg/dL
Patients who did not require uptitration to alirocumab 150 mg Q2W ([3]; in vivo): approximately 80%
Additional LDL-C reduction after dose increase at 12 weeks ([3]; patients with dose increased to 150 mg SC Q2W): 12.4%
